First the molecules themselves.
T1: Renin (Homo sapiens, UniProt P00797)
T1 sequence (P00797 whole entry): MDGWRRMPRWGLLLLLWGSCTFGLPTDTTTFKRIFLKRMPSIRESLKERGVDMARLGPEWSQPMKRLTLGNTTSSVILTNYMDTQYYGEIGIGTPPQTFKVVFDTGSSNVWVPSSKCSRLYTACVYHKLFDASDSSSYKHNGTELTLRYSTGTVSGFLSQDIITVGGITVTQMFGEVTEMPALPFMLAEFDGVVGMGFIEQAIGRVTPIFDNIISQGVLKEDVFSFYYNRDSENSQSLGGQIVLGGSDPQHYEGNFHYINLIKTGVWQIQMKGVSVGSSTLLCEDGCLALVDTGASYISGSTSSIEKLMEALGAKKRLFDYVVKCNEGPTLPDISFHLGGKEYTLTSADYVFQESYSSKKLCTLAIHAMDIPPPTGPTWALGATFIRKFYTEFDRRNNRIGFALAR

B1: Renin (Homo sapiens), P00797 (protein)
chain: T1 sequence (P00797 whole entry)

Starred links: 1 amine or outer side, 2 acyl side, 3 side chain; linkers in the order of their positions; H or OH if unused. Non-standard residues stand in square brackets, D forms with d. Residues, ends and D or L forms follow the SMILES beside them. ξ: configuration not given here. *: point of attachment. Sta(3ξ) = CC(C)C[C@H](N[*:1])C(O)CC(=O)[*:2]; Isovaleryl = CC(C)CC(=O)*

Substrate in one data set: CC[C@H](C)[C@H](NC(=O)[C@H](Cc1ccc(O)cc1)NC(=O)[C@@H](NC(=O)[C@H](CCCN=C(N)N)NC(=O)[C@@H](N)CC(=O)O)C(C)C)C(=O)N[C@@H](Cc1c[nH]cn1)C(=O)N1CCC[C@H]1C(=O)N[C@@H](Cc1ccccc1)C(=O)N[C@@H](Cc1c[nH]cn1)C(=O)N[C@@H](CC(C)C)C(=O)O
Briefly: The compound was tested for its antihypertensive activity against human renin. The data set is classed as functional.
What is called Km is the concentration of substrate that gives half-maximal velocity. B1: the Michaelis constant (Km) was 50 µM.

Another data set deals with T1, Renin. Briefly: Antihypertensive activity against human renin.
The Ki is a measure of affinity in units of concentration, obtained from inhibition or displacement. Higher therefore signals weaker binding. Take `C[C@H](CS)C(=O)N1CCC[C@H]1C(=O)O` [CAPTOPRIL]: the Ki came to 1.7 nM.

With `C[C@H](CC(=O)NO)C(=O)N1CCC[C@H]1C(=O)O`, the Ki is 600 nM.

With `CC(C)CC(=O)N[C@H](C(=O)N[C@H](C(=O)N[C@@H](CC(C)C)C(O)CC(=O)N[C@@H](C)C(=O)N[C@@H](CC(C)C)C(O)CC(=O)N[C@@H](CCCN=C(N)N)C(=O)O)C(C)C)C(C)C` (some centres undefined) (Isovaleryl-VV[Sta(3ξ)]A[Sta(3ξ)]R-OH), the affinity corresponds to a Ki of 100 nM.

In turn, `C[C@H](NC(CCc1ccccc1)C(=O)O)C(=O)N1CCC[C@H]1C(=O)O` (some centres undefined) returned a Ki of 1.2 nM.

Molecule `C[C@H](NP(=O)(O)Oc1ccccc1)C(=O)N1CCC[C@H]1C(=O)O` displayed a Ki of 1 nM.

Molecule `CC(C)C[C@H](NC(=O)[C@H](Cc1cnc[nH]1)NC(=O)[C@H](Cc1ccccc1)NC(=O)[C@H]1CCCN1C(=O)[C@H](Cc1cnc[nH]1)NC(=O)[C@H]1CCCN1)C(=O)N[C@@H](CC(C)C)C(=O)N[C@H](C(=O)N[C@@H](Cc1ccc(O)cc1)C(=O)O)C(C)C` gave a Ki of 42000 nM. Against the preceding molecule, the Ki is about 42000-fold higher.

For the molecule `COC(=O)[C@H](CCCN=C(N)N)NC(=O)CC(O)[C@H](CC(C)C)NC(=O)[C@H](C)NC(=O)CC(O)[C@H](CC(C)C)NC(=O)[C@@H](NC(=O)[C@@H](NC(=O)CC(C)C)C(C)C)C(C)C` (some centres undefined) (Isovaleryl-VV[Sta(3ξ)]A[Sta(3ξ)]R-OMe), affinity was put at a Ki of 300 nM.

In the case of `C[C@H](CCC(=O)O)C(=O)N1CCC[C@H]1C(=O)O`, the Ki amounted to 800 nM.

The molecule `CC(C)C[C@H](NC(=O)[C@H](Cc1cnc[nH]1)NC(=O)[C@H](Cc1ccccc1)NC(=O)[C@H]1CCCN1C(=O)[C@H](Cc1cnc[nH]1)NC(=O)[C@H]1CCCN1)C(=O)N[C@@H](Cc1ccccc1)C(=O)N[C@H](C(=O)N[C@@H](Cc1ccc(O)cc1)C(=O)O)C(C)C` returned a Ki of 4000 nM.

For the molecule H-EWPRPQIPP-OH, the Ki was determined as 800 nM.

Molecule `C[C@@H](NC(=O)[C@H](Cc1ccccc1)NP(=O)(O)Oc1ccccc1)C(=O)O` displayed an inhibition constant (Ki) of 2200 nM.

`C[C@H](CC(=O)O)C(=O)N1CCC[C@H]1C(=O)O`: the Ki was determined as 2500 nM. The Ki values of the last two molecules are within 1.5-fold of each other.

In the case of `CC(C)[C@H](NC(=O)[C@H](Cc1ccccc1)NC(=O)[C@H](Cc1ccccc1)NC(=O)[C@H](Cc1c[nH]cn1)NC(=O)[C@H](Cc1ccccc1)NC(=O)[C@H]1CCCN1C(=O)[C@H](Cc1c[nH]cn1)NC(=O)[C@H]1CCCN1)C(=O)N[C@@H](Cc1ccc(O)cc1)C(=O)O`, the affinity corresponds to a Ki of 1000 nM.
